The values below are quoted from earlier work in US20060057232A1, “Method of altering age perception” (priority 2004, published 2006).

The data set relates to sensitivity of observers to light. The conditions noted are these: (26).

Turning to `c1ccncc1` [pyridine], the “effect on sensitivity of observers to light” value is reported as “increase sensitivity of observers to light”.
